Data taken from BindingDB's records for patent US11026923 (H. Lundbeck, 2021).

What was measured:
Assay in all cases: Inhibition Assay
[1] = target: Dual specificity calcium/calmodulin-dependent 3',5'-cyclic nucleotide phosphodiesterase 1A (Human, UniProt P54750)
Procedure: (§1) Reactions were initiated by addition of the cyclic nucleotide substrate, and reactions were allowed to proceed for 1 hr at room temperature before being terminated through mixing with 20 uL (0.2 mg) yttrium silicate SPA beads (PerkinElmer).

[2] = target: Dual specificity calcium/calmodulin-dependent 3',5'-cyclic nucleotide phosphodiesterase 1B (Homo sapiens, UniProt Q01064)
Procedure: as §1

[3] = target: Dual specificity calcium/calmodulin-dependent 3',5'-cyclic nucleotide phosphodiesterase 1C (Human, UniProt Q14123)
Dual specificity calcium/calmodulin-dependent 3',5'-cyclic nucleotide phosphodiesterase 1C, sequence (Q14123 whole entry): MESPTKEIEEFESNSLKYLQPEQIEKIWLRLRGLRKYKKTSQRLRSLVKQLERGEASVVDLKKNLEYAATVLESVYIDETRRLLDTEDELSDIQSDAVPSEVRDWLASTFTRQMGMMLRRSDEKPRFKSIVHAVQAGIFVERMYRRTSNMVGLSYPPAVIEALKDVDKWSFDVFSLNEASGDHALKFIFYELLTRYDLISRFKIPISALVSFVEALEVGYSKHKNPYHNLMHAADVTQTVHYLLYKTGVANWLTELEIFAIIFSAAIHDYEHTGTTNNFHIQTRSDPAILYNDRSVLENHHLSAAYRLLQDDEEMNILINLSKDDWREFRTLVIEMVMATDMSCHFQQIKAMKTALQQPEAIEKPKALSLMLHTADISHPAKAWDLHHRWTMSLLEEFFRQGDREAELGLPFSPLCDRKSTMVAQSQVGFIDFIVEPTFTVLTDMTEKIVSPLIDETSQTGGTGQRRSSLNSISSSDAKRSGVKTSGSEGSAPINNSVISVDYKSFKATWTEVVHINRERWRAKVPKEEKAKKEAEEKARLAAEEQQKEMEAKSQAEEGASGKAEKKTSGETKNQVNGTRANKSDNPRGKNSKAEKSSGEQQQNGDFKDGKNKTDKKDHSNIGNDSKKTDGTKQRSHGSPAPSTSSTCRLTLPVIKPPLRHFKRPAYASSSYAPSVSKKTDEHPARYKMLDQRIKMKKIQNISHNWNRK
Procedure: as §1

Dual specificity calcium/calmodulin-dependent 3',5'-cyclic nucleotide phosphodiesterase 1A, sequence (P54750 whole entry): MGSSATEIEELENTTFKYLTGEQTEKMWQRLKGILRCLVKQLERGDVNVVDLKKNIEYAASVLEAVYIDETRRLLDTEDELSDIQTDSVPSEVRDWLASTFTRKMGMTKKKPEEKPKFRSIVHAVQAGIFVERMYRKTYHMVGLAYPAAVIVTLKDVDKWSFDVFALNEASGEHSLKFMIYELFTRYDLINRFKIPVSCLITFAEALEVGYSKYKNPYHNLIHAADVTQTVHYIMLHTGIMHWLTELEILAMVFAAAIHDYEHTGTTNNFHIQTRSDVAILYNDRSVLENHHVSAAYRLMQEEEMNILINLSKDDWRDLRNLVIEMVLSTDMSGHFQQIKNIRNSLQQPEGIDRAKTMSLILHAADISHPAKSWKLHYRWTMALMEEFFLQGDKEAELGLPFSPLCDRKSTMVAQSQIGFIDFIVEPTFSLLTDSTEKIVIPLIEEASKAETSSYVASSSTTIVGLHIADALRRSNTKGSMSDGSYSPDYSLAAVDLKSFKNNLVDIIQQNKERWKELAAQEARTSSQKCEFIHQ
Dual specificity calcium/calmodulin-dependent 3',5'-cyclic nucleotide phosphodiesterase 1B, sequence (Q01064 whole entry): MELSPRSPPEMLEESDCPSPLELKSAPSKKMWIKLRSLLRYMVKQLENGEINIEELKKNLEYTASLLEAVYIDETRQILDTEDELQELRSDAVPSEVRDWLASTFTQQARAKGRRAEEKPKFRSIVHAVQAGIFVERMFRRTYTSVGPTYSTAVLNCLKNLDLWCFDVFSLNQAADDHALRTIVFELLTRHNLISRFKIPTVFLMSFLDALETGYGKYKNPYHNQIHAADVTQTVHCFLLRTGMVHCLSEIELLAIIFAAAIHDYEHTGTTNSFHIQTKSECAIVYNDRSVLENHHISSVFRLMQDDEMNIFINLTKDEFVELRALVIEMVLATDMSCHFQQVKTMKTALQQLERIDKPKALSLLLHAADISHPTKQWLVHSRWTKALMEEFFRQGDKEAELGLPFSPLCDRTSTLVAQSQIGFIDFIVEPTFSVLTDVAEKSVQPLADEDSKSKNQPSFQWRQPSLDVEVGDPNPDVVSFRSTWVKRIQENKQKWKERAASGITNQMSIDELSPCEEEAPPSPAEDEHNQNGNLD

CC1=NN(C(C)C)/C(=C(/C=C/c2cn(C)nc2C)NCc2cnn(C)c2)C1 [US11026923, Example 61]
IC50 [1]: 550 nM
IC50 [2]: 120 nM
IC50 [3]: 680 nM

COc1ccccc1/C=C/C(NCc1cnn(C)c1)=C1\CC(C)=NN1C(C)C [US11026923, Example 63]
IC50 [1]: 64 nM
IC50 [2]: 9.4 nM
IC50 [3]: 20 nM

CC1=NN(C(C)C)/C(=C(/C=C/c2ccccc2)NCc2cnn(C)c2)C1 [US11026923, Example 64]
IC50 [1]: 52 nM
IC50 [2]: 12 nM
IC50 [3]: 47 nM

COc1ncccc1/C=C/C(NCc1cnn(C)c1)=C1\CC(C)=NN1C(C)C [US11026923, Example 62]
IC50 [1]: 16 nM
IC50 [2]: 2.4 nM
IC50 [3]: 21 nM

CC1=NN(C(C)C)/C(=C(/C=C/c2ccsc2C)NCc2cnn(C)c2)C1 [US11026923, Example 65]
IC50 [1]: 7.9 nM
IC50 [2]: 1.2 nM

CC1=NN(C(C)C)/C(=C(/C=C/c2cnn(C)c2C)NCc2cnn(C)c2)C1 [US11026923, Example 66]
IC50 [1]: 210 nM
IC50 [2]: 59 nM
IC50 [3]: 220 nM
